Earlier results on three molecules are cited in PubChem BioAssay AID1259409 (Chemical Carcinogenesis Research Information System (CCRIS), 2018).

For this series, the system named is rodent chemically induced tumor inhibition, incidence and multiplicity. In words: CCRIS tumor inhibitor studies.

As to `Oc1cc(O)c2c(c1)O[C@H](c1ccc(O)c(O)c1)[C@@H](O)C2`, the “tumour outcome (control, treated, inhibition, significance)” value runs as follows: (Carcinogen: 1,2-DIMETHYLHYDRAZINE [540-73-6], Species: RAT, Strain/Sex: WISTAR, Target Tissue: Type of Lesion: COLON, Dose [Carcinogen]: 20 MG/KG) 81.3%, 58.8%, 27.7%, p<0.05; (Carcinogen: 7,12-DIMETHYLBENZ[A]ANTHRACENE, 57-97-6, Dose [Inhibitor]: 0, 0.2 ML OF A 1% SOLUTION 1/D FOR 2 WK APPLIED 5 MIN POST EACH CARCINOGEN DOSE THEN 1/D FOR 4 WK DURING PROMOTION STAGE, Route [Inhibitor]: DERMAL, Species: MOUSE, Strain/Sex: SWISS/MALE, Target Tissue: Type of Lesion: SKIN: PAPILLOMA, Dose [Carcinogen]: 0.2 ML OF A 0.24% SOLUTION IN DMSO 1/D FOR 2 WK, Promoter: CROTON OIL, 8001-28-3) 23/23 (100%), 16/23 (70%), 30%, not calculated; (Carcinogen: 7,12-DIMETHYLBENZ[A]ANTHRACENE, 57-97-6, Dose [Inhibitor]: 0, 0.2 ML OF A 1% SOLUTION 1/D FOR 2 WK APPLIED 5 MIN PRIOR TO EACH CARCINOGEN DOSE (STUDY DURATION: 20 WK), Route [Inhibitor]: DERMAL, Species: MOUSE, Strain/Sex: SWISS/MALE, Target Tissue: Type of Lesion: SKIN: PAPILLOMA, Dose [Carcinogen]: 0.2 ML OF A 0.24% SOLUTION IN DMSO 1/D FOR 2 WK, Promoter: CROTON OIL, 8001-28-3) 23/23 (100%), 20/23 (87%), 13%, not calculated; (Carcinogen: 7,12-DIMETHYLBENZ[A]ANTHRACENE, 57-97-6, Dose [Inhibitor]: 0, 2.5 MG/D IN DRINKING WATER FOR DURATION OF STUDY BEGINNING 2 WK PRIOR TO CARCINOGEN DOSE (STUDY DURATION: 6 MO), Route [Inhibitor]: ORAL, Species: RAT, Strain/Sex: WISTAR/FEMALE, Target Tissue: Type of Lesion: MAMMARY GLAND: TUMOR, Dose [Carcinogen]: 10 MG IN PEANUT OIL INJECTED INTO SUBCUTANEOUS POUCH CREATED IN THE 5TH AND 6TH MAMMARY GLAND REGION, Promoter: NONE USED) 20/20 (100%), 4/20 (20%), 80%, p<0.001; (Carcinogen: 7,12-DIMETHYLBENZ[A]ANTHRACENE, 57-97-6, Dose [Inhibitor]: 0, 4 MG 2/WK FOR 20 WK BEGINNING 2 WK POST CARCINOGEN DOSE (STUDY DURATION: 22 WK), Route [Inhibitor]: DERMAL, Species: MOUSE, Strain/Sex: CF-1/FEMALE, Target Tissue: Type of Lesion: SKIN: PAPILLOMA, Dose [Carcinogen]: 25.6 UG ONCE, Promoter: 12-O-TETRADECANOYLPHORBOL-13-ACETATE, 16561-29-8) 97%, 97%, 0%, not significant; (Carcinogen: 7,12-DIMETHYLBENZ[A]ANTHRACENE, 57-97-6, Dose [Inhibitor]: 0, 12 MG 2/WK FOR 20 WK BEGINNING 2 WK POST CARCINOGEN DOSE (STUDY DURATION: 22 WK), Route [Inhibitor]: DERMAL, Species: MOUSE, Strain/Sex: CF-1/FEMALE, Target Tissue: Type of Lesion: SKIN: PAPILLOMA, Dose [Carcinogen]: 25.6 UG ONCE, Promoter: 12-O-TETRADECANOYLPHORBOL-13-ACETATE, 16561-29-8) 97%, 91%, 6%, not significant. Besides, the “tumour outcome (control, treated, inhibition, significance)” value is given as 20/20 (100%), 16/20 (80%), 20%, not significant (Carcinogen: BENZO[A]PYRENE, 50-32-8, Dose [Inhibitor]: 0, 2.5 MG/D IN DRINKING WATER FOR 8 WK BEGINNING 2 WK PRIOR TO CARCINOGEN TREATMENT (STUDY DURATION: 20 WK), Route [Inhibitor]: ORAL, Species: MOUSE, Strain/Sex: SWISS/FEMALE, Target Tissue: Type of Lesion: FORESTOMACH: TUMOR, Dose [Carcinogen]: 1 MG IN 0.1 ML PEANUT OIL 2/WK FOR 4 WK, Promoter: NONE USED); 14/15 (93%), 4/15 (27%), 71%, p<0.001 (Carcinogen: METHYL(ACETOXYMETHYL)NITROSAMINE, 56856-83-8, Dose [Inhibitor]: 0, 1.7 MG/D IN DRINKING WATER FOR DURATION OF STUDY BEGINNING 2 WK PRIOR TO CARCINOGEN TREATMENT (STUDY DURATION: 13 MO), Route [Inhibitor]: ORAL, Species: HAMSTER, Strain/Sex: SYRIAN/FEMALE, Target Tissue: Type of Lesion: ORAL: CAVITY, Dose [Carcinogen]: 2 MG/KG BW APPLIED TO RIGHT CHEEK POUCH 2/MO FOR 6 MO, Promoter: NONE USED); 11/17 (65%), 12/17 (71%), -9%, not significant (Carcinogen: N-ETHYL-N-HYDROXYETHYLNITROSAMINE, 13147-25-6, Dose [Inhibitor]: 0, 0.8% IN DIET FOR 36 WK BEGINNING 1 WK POST CARCINOGEN TREATMENT (STUDY DURATION: 40 WK), Route [Inhibitor]: ORAL, Species: RAT, Strain/Sex: WISTAR/MALE, Target Tissue: Type of Lesion: KIDNEY: MICROADENOMA, Dose [Carcinogen]: 0.1% IN DRINKING WATER FOR 3 WK, Promoter: NONE USED); 14/17 (82%), 11/17 (65%), 21%, not significant (Carcinogen: N-ETHYL-N-HYDROXYETHYLNITROSAMINE, 13147-25-6, Dose [Inhibitor]: 0, 0.8% IN DIET FOR 36 WK BEGINNING 1 WK POST CARCINOGEN TREATMENT (STUDY DURATION: 40 WK), Route [Inhibitor]: ORAL, Species: RAT, Strain/Sex: WISTAR/MALE, Target Tissue: Type of Lesion: KIDNEY: RENAL CELL TUMOR, Dose [Carcinogen]: 0.1% IN DRINKING WATER FOR 3 WK, Promoter: NONE USED); 10/17 (59%), 11/17 (65%), -10%, not significant (Carcinogen: N-ETHYL-N-HYDROXYETHYLNITROSAMINE, 13147-25-6, Dose [Inhibitor]: 0, 0.8% IN DIET FOR 36 WK BEGINNING 1 WK POST CARCINOGEN TREATMENT (STUDY DURATION: 40 WK), Route [Inhibitor]: ORAL, Species: RAT, Strain/Sex: WISTAR/MALE, Target Tissue: Type of Lesion: LIVER: HEPATOCELLULAR ADENOMA, Dose [Carcinogen]: 0.1% IN DRINKING WATER FOR 3 WK, Promoter: NONE USED); 7/17 (41%), 3/17 (18%), 56%, not significant (Carcinogen: N-ETHYL-N-HYDROXYETHYLNITROSAMINE, 13147-25-6, Dose [Inhibitor]: 0, 0.8% IN DIET FOR 36 WK BEGINNING 1 WK POST CARCINOGEN TREATMENT (STUDY DURATION: 40 WK), Route [Inhibitor]: ORAL, Species: RAT, Strain/Sex: WISTAR/MALE, Target Tissue: Type of Lesion: LIVER: HEPATOCELLULAR CARCINOMA, Dose [Carcinogen]: 0.1% IN DRINKING WATER FOR 3 WK, Promoter: NONE USED). In addition, the “tumour outcome (control, treated, inhibition, significance)” value by setting is: (Carcinogen: N-NITROSOBIS(2-HYDROXYPROPYL)AMINE, 53609-64-6, Dose [Inhibitor]: 0, 1.5% IN DIET FOR 30 WK BEGINNING POST CARCINOGEN TREATMENT (STUDY DURATION: 35 WK), Route [Inhibitor]: ORAL, Species: HAMSTER, Strain/Sex: SYRIAN/MALE, Target Tissue: Type of Lesion: PANCREAS: ADENOCARCINOMA, Dose [Carcinogen]: 500 MG/KG 1/WK FOR 5 WK, Promoter: NONE USED) 8/17 (47%), 5/19 (26%), 45%, not significant; (Carcinogen: NONE USED, Dose [Inhibitor]: 0, 2.5 MG/D IN DRINKING WATER FROM 8 MO OF AGE (STUDY DURATION: 15 MO), Route [Inhibitor]: ORAL, Species: MOUSE, Strain/Sex: C3H/FEMALE, Target Tissue: Type of Lesion: MAMMARY GLAND: TUMOR, Promoter: NONE USED) 12/20 (60%), 8/20 (40%), 33%, not calculated.

With `O=C(O)c1cc(=O)[nH]c(=O)[nH]1`, the “tumour outcome (control, treated, inhibition, significance)” value reads like this: (Carcinogen: URETHANE, 51-79-6, Dose [Inhibitor]: 0.1 MG/GM BW AS A 1% SUSPENSION IN DISTILLED WATER ONCE 14 WK OF AGE SIMULTANEOUS WITH CARCINOGEN TREATMENT (STUDY DURAT, Route [Inhibitor]: INTRAPERITONEAL, Species: MOUSE, Strain/Sex: SWR/MALE, Target Tissue: Type of Lesion: LUNG: ADENOMA, Dose [Carcinogen]: 1 MG/G BW IN DISTILLED WATER ONCE, Promoter: NONE USED) 100%, 100%, 0%, not significant; (Carcinogen: URETHANE, 51-79-6, Dose [Inhibitor]: 0.1 MG/GM BW AS A 1% SUSPENSION IN DISTILLED WATER TWICE AT 13 WK OF AGE GIVEN 24 HR APART STARTING 24 HR PRIOR TO CARCI, Route [Inhibitor]: INTRAPERITONEAL, Species: MOUSE, Strain/Sex: SWR/MALE, Target Tissue: Type of Lesion: LUNG: ADENOMA, Dose [Carcinogen]: 0.5 MG/GM BW IN DISTILLED WATER ONCE AT SAME TIME AS LAST AGENT TREATMENT, Promoter: NONE USED) 83%, 100%, -20%, not significant; (Carcinogen: URETHANE, 51-79-6, Dose [Inhibitor]: 0.1 MG/GM BW AS A 1% SUSPENSION IN DISTILLED WATER TWICE AT 22 WK OF AGE GIVEN 24 HR APART STARTING 24 HR PRIOR TO CARCI, Route [Inhibitor]: INTRAPERITONEAL, Species: MOUSE, Strain/Sex: SWR/MALE, Target Tissue: Type of Lesion: LUNG: ADENOMA, Dose [Carcinogen]: 0.5 MG/GM BW IN DISTILLED WATER ONCE AT SAME TIME AS LAST AGENT TREATMENT, Promoter: NONE USED) 71%, 71%, 0%, not significant.

Regarding `CC(C)(C)c1cccc(C(C)(C)C)c1O`, the “tumour outcome (control, treated, inhibition, significance)” value (Carcinogen: BENZO[A]PYRENE, 50-32-8, Dose [Inhibitor]: 0.03 MMOL/G OF DIET DAILY STARTING 7 D BEFORE AND CONTINUING THROUGH 3 D AFTER CARCINOGEN TREATMENT FOLLOWED BY OBSERVAT, Route [Inhibitor]: ORAL, Species: MOUSE, Strain/Sex: ICR/FEMALE, Target Tissue: Type of Lesion: FORESTOMACH: NEOPLASM, Dose [Carcinogen]: 1 MG IN 0.2 ML CORN OIL 2/WK FOR 4 WK, Promoter: NONE USED) is 94%, 79%, 16%, not significant.
